Results taken from patent US10016417B2, “Extended release formulation of a direct thrombin inhibitor” (Diakron Pharmaceuticals Inc., priority 2011, dated 2018).

How the values were obtained:
thrombin [1] = biological target: T1, thrombin (Homo sapiens, UniProt P00734); experiment: Multiple once-daily dosing study: ECT; type: in vivo; set-up: a prothrombin-thrombin intermediate which retains the full molecular weight of prothrombin; from tissue; host or cells: blood plasma of dosed subjects; conditions: at maximum levels, from regression analyses
Description: ECT is prolonged in a specific and linear fashion with increasing concentrations of hirudin.

thrombin [2] = biological target: T1, thrombin; experiment: Single dose crossover study: prothrombin time PT (INR); type: in vivo; set-up: from tissue; host or cells: blood plasma of dosed subjects
Protocol: As used herein, the term “prothrombin time (PT)” is the rate at which prothrombin is converted to thrombin in citrated blood with added calcium. This is used to assess the extrinsic coagulation system of the blood
(§1) Four formulations having same composition as those described in Example 1 were dosed in a clinical study. […] (reported as the international normalized ratio [INR]); (i.e. PD parameters) and (3) assess the safety of DPOC-4088 in healthy volunteers.
(§2) Twelve subjects aged 21 to 45 (mean 32.9±8.55) years were enrolled, and were dosed in 4 periods after an overnight fast and had blood drawn for PK/PD determinations immediately prior to dosing and at specified time intervals for 48 hrs post-dosing. Each dosing period was separated by a ≥5-day washout. The observed PK and PD parameters are tabulated as Table 12.

thrombin [3] = biological target: T1, thrombin; experiment: Single dose crossover study: ecarin clotting time (ECT); type: in vivo; set-up: a prothrombin-thrombin intermediate which retains the full molecular weight of prothrombin; from tissue; host or cells: blood plasma of dosed subjects
Protocol: In the assay, a known quantity of ecarin is added to the plasma of a patient treated with hirudin.

[4] = Single dose crossover study: safety; type: in vivo, human
Protocol: as §1
as §2, with “washout.” for “washout. The observed PK and PD parameters are tabulated as Table 12.”

[5] = Multiple once-daily oral dosing study, Dose Step 1 100 mg q.d.: PK; type: in vivo, human; conditions: assuming dose linearity from Day 10 PK data
Protocol: (§3) Randomized, double-blind, placebo-controlled, stepwise study of the pharmacokinetics (PK), pharmacodynamics (PD), PK/PD characteristics and safety of multiple once-daily oral dosing of DPOC-4088 in healthy young male subjects
Preliminary Safety, PK, and PD Results Dose Step 1: 100 mg q.d.
Mean PK profiles of DPOC-4088 on Day 1 (first dose) and Day 10 (steady-state) are shown in FIGS. 14 a-b, respectively. • On Day 1, the mean PK profile was in line with observation from the previous single dose study (DPOC-001). • The degree of accumulation to steady-state levels was modest with a Day 10/Day 1 ratio for AUC24h of 1.4. […] Pharmacodynamics

thrombin [6] = biological target: T1, thrombin; experiment: Multiple once-daily dosing study: aPTT; type: in vivo; set-up: from tissue; host or cells: blood plasma of dosed subjects; conditions: at maximum levels, from regression analyses
Description: (§4) As used herein, the term “activated partial thromboplastin time (aPTT)” is the period required for clot formation in recalcified blood plasma after contact activation and the addition of platelet substitutes. This measure is used to address the intrinsic and common pathways of coagulation.
as §3
Mean maximum and minimum fold changes compared to baseline (Day 1, pre dose) in ECT, aPTT and PT on Day 10 are shown in Table 15. […] Minimum changes in ECT and aPTT on Day 10 were 1.12 and 1.10 respectively (Table 16). These values are lower than the target values defined in the protocol which were 2 and 1.5, respectively, at steady-state trough levels (see below). • Linear regression on the changes in ECT and aPTT versus DPOC-4088 plasma levels was performed. […] For ECT the changes would be 2.4 and 3.1 fold respectively. • For reference, for dabigatran, clinically relevant doses result in changes in aPTT of approximately 1.50 fold at trough levels and 2-fold at maximum levels. For ECT these changes are approximately 2-fold at trough levels and 3-fold at maximum levels.

thrombin [7] = biological target: T1, thrombin; experiment: Single dose crossover study: activated partial thromboplastin time (aPTT); type: in vivo; set-up: from tissue; host or cells: blood plasma of dosed subjects; conditions: 24 hrs post-dose
Protocol: as §4, §1, §2

thrombin [8] = experiment: Single dose crossover study: thrombin time (TT); type: in vivo, human; conditions: by 48 hrs; returned to within
Protocol: As used herein, the term “thrombin time (TT)” is the time required for plasma fibrinogen to form […], measured as the time for clot formation after exogenous thrombin is added to citrated plasma.
as §1, §2

[9] = Multiple once-daily dosing study: safety; type: in vivo, human
Description: as §3
10 healthy volunteers participated in the first step of the multiple dose study (8 received DPOC-4088 and 2 received placebo). […] Minor AEs were reported. All AEs were grade 1, transient and were resolved. No bruising (except for puncture site hematomas) or petechiae were reported and the physical (including neurological) exams were normal in all volunteers. The lab exams were within normal limits or deviating without clinical significance.

For `O=C(Cn1c(Cl)cnc(NCC(F)(F)c2ccccn2)c1=O)NCc1ncccc1F` [DPOC-4088, 3-fluoro-2-pyridylmethyl-3-(2,2-difluoro-2-(2-pyridyl)ethylamino)-6-chloropyrazin-2-one-1-acetamide], the “ECT expected fold change from baseline” value (thrombin [1]; Day 10, 200 mg once daily) was 2.4 fold, the “ECT expected fold change from baseline” value (thrombin [1]; Day 10, 300 mg once daily) was 3.1 fold and the “mean peak INR” value (thrombin [2]; single dose 100 mg formulations) was 1.15-1.17. For the same molecule, the “mean peak INR” value (thrombin [2]; single dose 200 mg formulations) was 1.28-1.30, the “time at which mean peak INRs were reached” value (thrombin [2]; single doses of 100 or 200 mg) was 4 h and the “mean 24 hr ECT above the pre-dose ECT” value (thrombin [3]; 100 mg dose) was 21-23%. For the same molecule, the “mean 24 hr ECT above the pre-dose ECT” value (thrombin [3]; 200 mg dose) was 35-36%, the safety and tolerability ([4]; 100 and 200 mg doses, both release formulations) was “safe and well-tolerated” and the “Adverse events (AEs), subjects” value ([4]; most grade 1, unrelated or unlikely related) was 9/12. The “expected maximum DPOC-4088 levels” value ([5]; daily dose 200 mg) was roughly 2000 nM, the “expected maximum DPOC-4088 levels” value ([5]; daily dose 300 mg) was roughly 3000 nM and the “aPTT expected fold change from baseline” value (thrombin [6]; Day 10, 200 mg once daily) was 1.8 fold. For the same molecule, the “aPTT expected fold change from baseline” value (thrombin [6]; Day 10, 300 mg once daily) was 2.2 fold, the “mean aPTT above the pre-dose aPTT” value (thrombin [7]; 100 mg) was 12-15% and the “mean aPTT above the pre-dose aPTT” value (thrombin [7]; 200 mg) was 21-24%. For the same molecule, the “mean TT relative to pre-dosing TT” value (thrombin [8]) was 1-15%, the safety conclusion ([9]; 100 mg level, after 10 days of oral administration) was “very safe” and the “treatment emergent serious adverse events (AEs)” value ([9]; 100 mg q.d., 8 on DPOC-4088) was “No treatment emergent serious adverse events”.
